Measurements from patent US9969758B2, “Antimicrobial compounds” (BIOMERIEUX, priority 2014, dated 2018).

Legend:
Assay in all cases: MIC by agar dilution
[1] = system: E. faecalis (11); format: cell-based, Enterococcus faecalis; conditions: Enterococcus faecalis, E. faecalis (11)
From the text: (§1) A collection of 50 isolates of Staphylococci aureus included 36 strains of methicillin-resistant S. aureus (MRSA) frequently encountered in Europe, including strains isolated in Belgium, Finland, France, Germany and the United Kingdom. Another strain of MRSA, NCTC 11939, was included as a control, as well as a methicillin-sensitive control (NCTC 6571). Twelve other isolates of methicillin-sensitive Staphylococcus aureus (MSSA) recently collected from blood cultures were also included. Finally, 50 isolates of enterococci included two control strains (Enterococcus faecalis NCTC 755 and Enterococcus faecium NCTC 7171) and 48 isolates originating from clinical samples obtained from at least three different hospitals. The clinical isolates included E. faecalis (n=10), E. faecium (n=33), Enterococcus casseliflavus (n=3), Enterococcus gallinarum (n=2).
(§2) Determining the minimum inhibitory concentrations (MIC). All the MICs were determined using an agar dilution method. This required use of a medium without a defined antagonist (peptone-free), prepared as described previously with the inclusion of 2% horse blood lysed with saponin, 25.0 μg/mL of NAD and 25.0 μg/mL of hemin [17]. The compounds tested were dissolved in sterile deionised water and incorporated into the agar medium in a concentration range of 0.0031 to 8.0 μg/mL (0.016 to 32 μg/mL for gram-positive bacteria). All the isolates were prepared at a density equivalent to 0.5 McFarland units in sterile deionised water using a densitometer (approximately 1.5×10^8 CFU/mL), and then diluted to 1 for 15. An aliquot of 1 μL of each diluted suspension was then placed onto plates with a multispot inoculator to give the final recommended inoculation of 10 000 CFU/spot. The MICs of fosfomycin were determined by the same method, except that the IsoSensitest medium (Oxoid, Basingstoke, United Kingdom) was used, plus 25.0 μg/mL of glucose-6-phosphate (Sigma, Poole, United Kingdom) and an extended range of fosfomycin concentrations. All the dishes (including the antimicrobial-free controls) were incubated for 22 hours at 37° C. All the tests were performed on at least two independent replicates in order to examine the reproducibility.

[2] = system: glycopeptide-resistant enterococci; format: cell-based; conditions: GRE (43)
From the text: as §1, §2

[3] = system: methicillin-resistant Staphylococcus aureus; format: cell-based; conditions: Staphylococcus aureus, MRSA (37)
From the text: as §1, §2

[4] = system: methicillin-sensitive Staphylococcus aureus; format: cell-based; conditions: MSSA (13)
From the text: as §1, §2

[5] = system: All Enterococci (50); format: cell-based; conditions: All Enterococci (50)
From the text: as §1, §2

[6] = system: E. coli (53); format: cell-based, Escherichia coli; conditions: E. coli (53)
From the text: (§3) Bacterial isolates. […] These included Citrobacter freundii (n=5), other species of Citrobacter (n=4), Enterobacter aerogenes (n=1), Enterobacter cloacae (n=27), Escherichia coli (n=53), Klebsiella oxytoca (n=5), Klebsiella pneumoniae (n=87), Kluyvera spp (n=1), Proteus mirabilis (n=8), Providencia rettgeri (n=2), Salmonella spp (n=3), and Serratia marcescens (n=1). Among these 197 isolates, there were 128 (65%) carbapenemase producers, including; 87 with NDM-1, 9 with IMP, 11 with KPC, 14 with OXA-48 and 7 with VIM. The majority of the carbapenemase producers jointly produced broad-spectrum β-lactamases (BSBL) or cephalosporinases (AmpC β-lactamases), but the latter are not documented for the sake of clarity.
as §2

[7] = system: All S. aureus (50); format: cell-based, Staphylococcus aureus; conditions: Staphylococcus aureus, All S. aureus (50)
From the text: as §1, §2

[8] = system: K. pneumoniae (87); format: cell-based, Klebsiella pneumoniae; conditions: Klebsiella pneumoniae, K. pneumoniae (87)
From the text: as §3, §2

[9] = system: AmpC (22); format: cell-based, Enterobacteriaceae
From the text: as §3, §2

[10] = system: E. faecium (34); format: cell-based, Enterococcus faecium; conditions: Enterococcus faecium, E. faecium (34)
From the text: as §1, §2

[11] = system: E. cloacae (27); format: cell-based, Enterobacter cloacae; conditions: Enterobacter cloacae, E. cloacae (27)
From the text: as §3, §2

[12] = system: Enterobacteriaceae with a broad-spectrum β-lactamase; format: cell-based; conditions: BSBL (47)
From the text: as §3, §2

[13] = system: carbapenemase-producing Enterobacteriaceae; format: cell-based
From the text: as §3, §2

[14] = system: Enterobacteriaceae (197); format: cell-based; conditions: Enterobacteriaceae (197)
From the text: as §3, §2

[15] = read-out: Modal MIC (most frequent MIC)

What does the source list for `C[C@@H]1O[C@@H]1P(=O)(O)O` [Fosfomycin, disodium [(2R,3S)-3-methyloxiran-2-yl] phosphonate]?
MIC50 ([1]; read-out: MIC50): 32 µg/mL; MIC90 ([1]; read-out: MIC90): > 32 µg/mL; MIC [1, 15]: 32 µg/mL; MIC50 ([2]; read-out: MIC50): > 32 µg/mL; MIC90 ([2]; read-out: MIC90): > 32 µg/mL; MIC [2, 15]: > 32 µg/mL; MIC50 ([3]; read-out: MIC50): 4 µg/mL; MIC90 ([3]; read-out: MIC90): 16 µg/mL; MIC [3, 15]: 8 µg/mL; MIC Range [4]: 2 to 16 µg/mL; MIC50 ([4]; Staphylococcus aureus, read-out: MIC50): 4 µg/mL; MIC90 ([4]; Staphylococcus aureus, read-out: MIC90): 16 µg/mL; MIC ([4]; Staphylococcus aureus, read-out: Modal MIC (most frequent MIC)): 4 µg/mL; MIC50 ([5]; read-out: MIC50): > 32 µg/mL; MIC90 ([5]; read-out: MIC90): > 32 µg/mL; MIC [5, 15]: > 32 µg/mL; MIC Range [6]: 0.125 to 8 µg/mL; MIC50 ([6]; Escherichia coli, read-out: MIC50): 0.5 µg/mL; MIC90 ([6]; Escherichia coli, read-out: MIC90): 1 µg/mL; MIC ([6]; Escherichia coli, read-out: Modal MIC (most frequent MIC)): 0.5 µg/mL; MIC50 ([7]; read-out: MIC50): 4 µg/mL; MIC90 ([7]; read-out: MIC90): 16 µg/mL; MIC [7, 15]: 8 µg/mL; MIC50 ([8]; read-out: MIC50): 8 µg/mL; MIC90 ([8]; read-out: MIC90): > 32 µg/mL; MIC [8, 15]: 4 µg/mL; MIC90 [9]: > 32 µg/mL; MIC [9, 15]: 32 µg/mL; MIC50 ([10]; read-out: MIC50): > 32 µg/mL; MIC90 ([10]; read-out: MIC90): > 32 µg/mL; MIC [10, 15]: > 32 µg/mL; MIC50 ([11]; read-out: MIC50): 16 µg/mL; MIC90 ([11]; read-out: MIC90): 32 µg/mL; MIC [11, 15]: 16 µg/mL; MIC50 ([12]; read-out: MIC50): 8 µg/mL; MIC90 ([12]; read-out: MIC90): > 32 µg/mL; MIC [12, 15]: > 32 µg/mL; MIC50 [13]: 4 µg/mL; MIC90 [13]: 32 µg/mL; MIC [13, 15]: 16 µg/mL; MIC50 ([14]; read-out: MIC50): 4 µg/mL; MIC90 ([14]; read-out: MIC90): > 32 µg/mL; MIC [14, 15]: 4 µg/mL
